Non-standard residues stand in square brackets, D forms with d. Residues, ends and D or L forms follow the SMILES beside them. αMeL = CC(C)C[C@](C)(N)C(=O)O; Nle = CCCC[C@H](N)C(=O)O; Aib = CC(C)(N)C(=O)O

What is called fraction remaining is what is left of the initial amount, in per cent. The low end stands for more turnover, the high end for less turnover. In general, Emax refers to the maximal effect, on the per cent scale that the assay sets. What is called solubility is the concentration that dissolves in the medium under given conditions. Usually EC50 stands for the concentration needed to bring the measured effect to its halfway point. Low readings indicate an effect from little substance, high ones a need for much substance.

A short description of one data set: Stability in rat plasma. The class given is in vitro ADME. Conditions: 37° C.; for Rat plasma stability % remaining, T = 0: 5 μM; for remaining at 1 h, 5 μM / remaining at 4 h, 5 μM: rat plasma (sodium or lithium heparin). On the procedure:
(§1) Prior to the testing of stability in plasma of a peptide batch, its purity (HPLC-UV) was determined.
(§2) Rat and Human plasma: anti-coagulant sodium or lithium heparin.
(§3) 100 μM solution of study compound in 50 mM Phosphate buffer pH 7.4.
(§4) 950 μL plasma is pre-incubated for 5 min at 37° C. 50 μL of compound stock solution is added. Final compound concentration=5 μM. Vortex and transfer 1504, plasma into an Eppendorf for each time point. The time points 0-1 and −4 h are carried out in duplicate for each species.
(§5) After incubation extract 1504, plasma with 6004, Acetonitrile containing with 1% TFA. Vortex and centrifuge 10 min at 14600 rpm. Dry 2004, supernatant under N2. Reconstitute sample in 200 μL of H2O/CH3CN 98/2+0.1% FA+50 ng/ml Labetalol and analyze using the analytical system used in solubility and stability studies.
(§6) For determination of the amount of the remaining peptide, the peak areas of the target compound at t0 and each time point […] were compared, resulting in “% remaining peptide”, following the equation
(§7) % remaining peptide=[(peak area peptide time)×100]/peak area peptide t0. The stability is expressed as “% remaining peptide”.

A further data set deals with T1, RXFP1 (Homo sapiens, UniProt Q9HBX9).
T1 sequence (Q9HBX9 1-757): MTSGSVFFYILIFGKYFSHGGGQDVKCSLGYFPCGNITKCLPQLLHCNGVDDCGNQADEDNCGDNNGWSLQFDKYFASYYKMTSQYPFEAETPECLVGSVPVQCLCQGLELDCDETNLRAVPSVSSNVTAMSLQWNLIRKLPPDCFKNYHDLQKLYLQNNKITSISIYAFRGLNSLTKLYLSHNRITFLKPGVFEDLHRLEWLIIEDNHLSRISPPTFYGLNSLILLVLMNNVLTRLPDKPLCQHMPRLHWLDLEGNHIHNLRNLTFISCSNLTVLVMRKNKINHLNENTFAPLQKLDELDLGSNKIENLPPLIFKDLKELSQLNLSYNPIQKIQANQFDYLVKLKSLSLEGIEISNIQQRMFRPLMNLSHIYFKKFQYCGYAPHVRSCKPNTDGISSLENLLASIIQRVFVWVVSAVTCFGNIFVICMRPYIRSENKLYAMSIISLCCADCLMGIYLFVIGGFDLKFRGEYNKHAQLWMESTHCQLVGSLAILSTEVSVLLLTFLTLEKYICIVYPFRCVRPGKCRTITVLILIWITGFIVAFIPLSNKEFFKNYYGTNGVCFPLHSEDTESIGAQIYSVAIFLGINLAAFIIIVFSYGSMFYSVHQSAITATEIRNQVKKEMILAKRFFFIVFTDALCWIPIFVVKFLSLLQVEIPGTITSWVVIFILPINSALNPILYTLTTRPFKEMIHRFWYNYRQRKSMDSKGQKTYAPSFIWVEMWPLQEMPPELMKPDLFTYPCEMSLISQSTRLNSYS
Put plainly: OVCAR5 cAMP assay (RXFP1 agonist activity, HTRF). The note with it: for Emax: OVCAR-5, read-out: cAMP assay in OVCAR 5 cells Emax, maximal intracellular cAMP relative to H2-relaxin in the same test occasion; for EC50: cAMP assay in OVCAR 5 cells EC50 (nM), OVCAR5 cells expressing endogenous RXFP1, cAMP by HTRF, 30 min at 37° C., 1 mM IBMX.

The nature of data set [1]: Stability in human plasma. It is filed as in vitro ADME. Conditions: 37° C.; for Human Plasma stability % remaining, T = 0: 5 μM; for remaining at 1 h, 5 μM / remaining at 4 h, 5 μM: human plasma (sodium or lithium heparin). On the procedure:
as §1, §2, §3, §4, §5, §6, §7

A short description of data set [2]: Solubility testing of peptides in buffer. It is filed as physicochemical. The note with it: Phosphate buffer 50 mM pH 7.4; target solubility 2.0 mg/ml; ~19 h; read-out: Solubility phosphate buffer pH 7.4.

Turning to `CC[C@H](C)[C@H](NC(=O)[C@H](CCC(N)=O)NC(=O)[C@H](C)NC(=O)[C@H](CCCNC(=N)N)NC(=O)[C@@H](NC(=O)[C@H](CCCCN)NC(=O)[C@H](CCC(=O)O)NC(=O)[C@H](CCCNC(=N)N)NC(=O)CNC(=O)[C@H](CCC(=O)O)NC(=O)[C@H](CC(C)C)NC(C)=O)C(C)C)C(=O)NC(C)(C)C(=O)N[C@H](C(=O)N[C@@H](CCC(=O)O)C(=O)NCC(=O)N[C@@H](CCSC)C(=O)N[C@@H](CO)C(=O)N[C@@H](CCCCN)C(=O)N[C@@H](Cc1c[nH]c2ccccc12)C(=O)N[C@@H](CO)C(=O)N[C@@H](CCCCN)C(=O)N[C@@H](CCCNC(=N)N)C(=O)N[C@@H](CCCCN)C(=O)N[C@@H](CCCCN)C(N)=O)[C@@H](C)CC` [compound 1] (Ac-LEGREKVRAQI[Aib]IEGMSKWSKRKK-NH2), in the data set “Stability in rat plasma”, the “Rat plasma stability % remaining, T = 0” value is 100%; the fraction remaining at 1 h, 5 μM came out at 72%; the amount remaining at 4 h, 5 μM came out at 17%. Further, on RXFP1, the maximum response (Emax) stood at 91%. Moreover, in data set [1], the “Human Plasma stability % remaining, T = 0” value came to 100%; the amount remaining at 1 h, 5 μM is 71%; the share remaining at 4 h, 5 μM amounted to 55%.

Take `CC[C@H](C)[C@H](NC(=O)[C@H](CCC(N)=O)NC(=O)[C@H](C)NC(=O)[C@H](CCCNC(=N)N)NC(=O)[C@@H](NC(=O)[C@H](CCCCN)NC(=O)[C@H](CCC(=O)O)NC(=O)[C@H](CCCNC(=N)N)NC(=O)CNC(=O)[C@H](CCC(=O)O)NC(=O)[C@H](CC(C)C)NC(C)=O)C(C)C)C(=O)NC(C)(C)C(=O)NC(C)(C)C(=O)N[C@@H](CCC(=O)O)C(=O)NCC(=O)N[C@@H](CCSC)C(=O)N[C@@H](CO)C(=O)N[C@@H](CCCCN)C(=O)N[C@@H](Cc1c[nH]c2ccccc12)C(=O)N[C@@H](CO)C(=O)N[C@@H](CCCCN)C(=O)N[C@@H](CCCNC(=N)N)C(=O)N[C@@H](CCCCN)C(=O)N[C@@H](CCCCN)C(N)=O` [compound 2] (Ac-LEGREKVRAQI[Aib][Aib]EGMSKWSKRKK-NH2): in “Stability in rat plasma”, the “Rat plasma stability % remaining, T = 0” value was determined as 100%; the fraction remaining at 1 h, 5 μM worked out at 57%; the amount remaining at 4 h, 5 μM came out at 24%. The maximal effect (Emax) on RXFP1 was found to be 99%. In data set [1], the “Human Plasma stability % remaining, T = 0” value came out at 100%; the share remaining at 1 h, 5 μM was found to be 80%; the share remaining at 4 h, 5 μM is 79%.

For the molecule `CCCC[C@H](NC(=O)CNC(=O)[C@H](CCC(=O)O)NC(=O)C(C)(C)NC(=O)C(C)(C)NC(=O)[C@@H](NC(=O)[C@H](C)NC(=O)[C@H](C)NC(=O)[C@H](CCCNC(=N)N)NC(=O)[C@@H](NC(=O)[C@H](CCCCN)NC(=O)[C@H](CCC(=O)O)NC(=O)[C@H](CCCNC(=N)N)NC(=O)CNC(=O)[C@H](CCC(=O)O)NC(=O)[C@H](CC(C)C)NC(=O)[C@H](CCC(=O)O)NC(C)=O)C(C)C)[C@@H](C)CC)C(=O)N[C@@H](CO)C(=O)N[C@H](C(=O)N[C@@H](Cc1c[nH]c2ccccc12)C(=O)N[C@@H](CO)C(=O)NC(C)(C)C(=O)N[C@@H](CCCNC(=N)N)C(=O)N[C@@H](CCCCN)C(=O)N[C@@H](CCCCN)C(N)=O)[C@@H](C)O` [compound 48] (Ac-ELEGREKVRAAI[Aib][Aib]EG[Nle]STWS[Aib]RKK-NH2), the Emax at RXFP1 came to 91%.

Take `CCCC[C@H](NC(=O)CNC(=O)[C@H](CCC(=O)O)NC(=O)C(C)(C)NC(=O)C(C)(C)NC(=O)[C@@H](NC(=O)[C@H](CCC(N)=O)NC(=O)[C@H](CCCNC(=N)N)NC(=O)[C@H](CCCNC(=N)N)NC(=O)[C@@H](NC(=O)[C@H](CCCCN)NC(=O)[C@H](CCC(=O)O)NC(=O)[C@H](CCCNC(=N)N)NC(=O)CNC(=O)[C@H](CCC(=O)O)NC(=O)[C@H](CC(C)C)NC(C)=O)C(C)C)[C@@H](C)CC)C(=O)N[C@@H](CO)C(=O)N[C@H](C(=O)N[C@@H](Cc1c[nH]c2ccccc12)C(=O)N[C@@H](CO)C(=O)NC(C)(C)C(=O)N[C@@H](CCCNC(=N)N)C(=O)N[C@@H](CCCCN)C(=O)N[C@@H](CCCCN)C(N)=O)[C@@H](C)O` [compound 49] (Ac-LEGREKVRRQI[Aib][Aib]EG[Nle]STWS[Aib]RKK-NH2): the maximal effect (Emax) on RXFP1 was 95%. In addition, in data set [2], the solubility is at least 2500 µg/mL.

Consider `CCCC[C@H](NC(=O)CNC(=O)[C@H](CCC(=O)O)NC(=O)C(C)(C)NC(=O)C(C)(C)NC(=O)[C@@H](NC(=O)[C@H](CCC(N)=O)NC(=O)[C@H](C)NC(=O)[C@H](CCCNC(=N)N)NC(=O)[C@@H](NC(=O)[C@H](CCCCN)NC(=O)[C@H](CCC(=O)O)NC(=O)[C@H](CCCNC(=N)N)NC(=O)CNC(=O)[C@H](CCC(=O)O)NC(=O)[C@H](CC(C)C)NC(C)=O)C(C)C)[C@@H](C)CC)C(=O)N[C@@H](CO)C(=O)N[C@H](C(=O)N[C@@H](Cc1c[nH]c2ccccc12)C(=O)N[C@@H](CO)C(=O)NC(C)(C)C(=O)N[C@@H](CCCNC(=N)N)C(=O)N[C@@H](CCCNC(=N)N)C(=O)N[C@@H](CCCNC(=N)N)C(N)=O)[C@@H](C)O` [compound 50] (Ac-LEGREKVRAQI[Aib][Aib]EG[Nle]STWS[Aib]RRR-NH2), for which, at RXFP1, the maximum response (Emax) worked out at 90% and the concentration for a half-maximal effect (EC50) was at most 5 nM. Also, in data set [2], the solubility is at least 2300 µg/mL.

`CCCC[C@H](NC(=O)CNC(=O)[C@H](CCC(=O)O)NC(=O)C(C)(C)NC(=O)C(C)(C)NC(=O)[C@@H](NC(=O)[C@H](CCCCNC(C)=O)NC(=O)[C@H](C)NC(=O)[C@H](CCCNC(=N)N)NC(=O)[C@@H](NC(=O)[C@H](CCCCN)NC(=O)[C@H](CCC(=O)O)NC(=O)[C@H](CCCNC(=N)N)NC(=O)CNC(=O)[C@H](CCC(=O)O)NC(=O)[C@](C)(CC(C)C)NC(C)=O)C(C)C)[C@@H](C)CC)C(=O)N[C@@H](CO)C(=O)N[C@H](C(=O)N[C@@H](Cc1c[nH]c2ccccc12)C(=O)N[C@@H](CO)C(=O)NC(C)(C)C(=O)N[C@@H](CCCNC(=N)N)C(=O)N[C@@H](CCCCN)C(=O)N[C@@H](CCCCNC(C)=O)C(N)=O)[C@@H](C)O` [compound 56] (Ac-[αMeL]EGREKVRAK(Ac)I[Aib][Aib]EG[Nle]STWS[Aib]RKK(Ac)-NH2): the Emax at RXFP1 was found to be 95%.

`CC[C@H](C)[C@H](NC(=O)[C@H](CCC(N)=O)NC(=O)[C@H](C)NC(=O)[C@H](CCCNC(=N)N)NC(=O)[C@@H](NC(=O)[C@H](CCCCN)NC(=O)[C@H](CCC(=O)O)NC(=O)[C@H](CCCNC(=N)N)NC(=O)CNC(=O)[C@H](CCC(=O)O)NC(=O)[C@H](CC(C)C)NC(C)=O)C(C)C)C(=O)NC(C)(C)C(=O)NC(C)(C)C(=O)N[C@@H](CCC(=O)O)C(=O)NCC(=O)N[C@@H](CCC(N)=O)C(=O)N[C@@H](CO)C(=O)N[C@H](C(=O)N[C@@H](Cc1ccccc1)C(=O)N[C@@H](CO)C(=O)NC(C)(C)C(=O)N[C@@H](CCCNC(=N)N)C(=O)N[C@@H](CCCCN)C(=O)N[C@@H](CCCCN)C(N)=O)[C@@H](C)O` [compound 57] (Ac-LEGREKVRAQI[Aib][Aib]EGQSTFS[Aib]RKK-NH2): on RXFP1, the Emax is 91% and the 50% effective concentration (EC50) was 24.4 nM.

In the case of “Ac-VIKLSGRELVRAQIAISGMSTWSKKKK-NH2 [KKKK(AcB7-29 C11.23S), reference compound]”, in the data set “Stability in rat plasma”, the “Rat plasma stability % remaining, T = 0” value came to 100%. For the same molecule, the “Human Plasma stability % remaining, T = 0” value in data set [1] was found to be 100%.

For the molecule “Ac-VIKLSGRELVRAQIAISGMSTWSKRSL-NH2 [AcB7-33 C11.23S, reference compound]”, in the data set “Stability in rat plasma”, the “Rat plasma stability % remaining, T = 0” value is recorded as 100%. For the same molecule, in data set [1], the “Human Plasma stability % remaining, T = 0” value is reported as 100%.

Turning to “H-VIKLSGRELVRAQIAISGMSTWSKRSL-NH2 [B7-33 C11.23S, reference compound]”, the “Rat plasma stability % remaining, T = 0” value in the data set “Stability in rat plasma” is listed as 100%. The “Human Plasma stability % remaining, T = 0” value in data set [1] amounted to 100%.

(Values after patent US10988524B2, “Modified relaxin B chain peptides and their therapeutic use” (priority 2018, dated 2021).)
